According to patent publication US10508130B2, “Crystalline polymorph of 15B-hydroxy-osaterone acetate” (ASKA Pharmaceutical Co., Ltd., priority 2016, dated 2019):

Key:
[1] = Friction or pulverization stability (automatic mortar grinder, PXRD); format: physicochemical; conditions: 50 mg pulverized one hour, pestle 124 g, 50 rpm; PXRD peak height ratio
Procedure: In an automatic mortar grinder (weight of pestle: 124 g, 50 rpm), 50 mg of a sample (the crystalline polymorphic form A or the crystalline polymorphic form B) was put, the sample was pulverized over one hour and sampled. A PXRD analysis of the sample was conducted to determine the change of a degree of crystallization. The degree of crystallization after one hour of the crystalline polymorphic form A was 46.8%, and that of the crystalline polymorphic form B was 22.2%. Thus, the crystalline polymorphic form A was stable to pulverization. Incidentally, the degree of crystallization was determined based on an intensity ratio (peak height) of a characteristic diffraction peak in the PXRD spectrum (for the crystalline polymorphic form A, a diffraction peak at 2θ=17.1°; for the crystalline polymorphic form B, a diffraction peak at 2θ=16.2°), and the change rate of crystallization degree was calculated.

[2] = Pharmacokinetics in dog (oral capsule, plasma LC-MS/MS); format: in vivo; conditions: female dogs, 0.3 mg/kg oral, gelatin capsule with lactose hydrate, plasma 15β-hydroxy-osaterone acetate
Procedure: For each sample of the crystalline polymorphic form A obtained in Example 1 and the crystalline polymorphic form B obtained in Comparative Example 1, the sample was mixed at a dose of 0.3 mg/kg with 100 mg of lactose hydrate (manufactured by DFE Pharma), and the mixture was filled with a gelatin capsule (manufactured by Matsuya Corporation, MM, size: No. 2) to prepare a capsule preparation. The capsule preparation containing the crystalline polymorphic form A was orally administered to a first female dog group (5 dogs), and the capsule preparation containing the crystalline polymorphic form B was orally administered to a second female dog group (5 dogs). The blood was sampled from each dog 0.5, 1, 2, 3, 4, 5, 7, 10, 24, 48, and 72 hours after oral administration, and the blood plasma from each sample was obtained by centrifugation. The concentration of 15β-hydroxy-osaterone acetate in each blood plasma was measured by an LC-MS/MS (liquid chromatography-tandem mass spectrometry) method, and a time to reach a maximum plasma concentration (Tmax) and a maximum plasma concentration (Cmax) were calculated.

[3] = Angle of repose (powder flow property); format: physicochemical; conditions: for Angle of repose (°) Average: average of three measurements; for Degree of flow property: evaluated based on Japanese Pharmacopoeia, General Information (Powder Flow); for Angle of repose (°) First time: first measurement; for Angle of repose (°) Second time: second measurement; for Angle of repose (°) Third time: third measurement
Procedure: Probably due to being the prism crystal, the crystalline polymorphic form A of 15β-hydroxy-osaterone acetate is characterized by a high powder flow property and a small angle of repose. For example, the powdery crystalline polymorphic form A of 15β-hydroxy-osaterone acetate has an average angle of repose of, for example, about 30 to 38°, preferably about 32 to 37° (e.g., about 33 to 37°), and more preferably about 34 to 36°, when the angle of repose is measured three times in accordance with methods for angle of repose described in The Japanese Pharmacopoeia. Incidentally, the crystalline polymorphic form B of 15β-hydroxy-osaterone acetate has an average angle of repose of, for example, about 42 to 52° (e.g., about 44 to 50°, particularly about 45 to 47°) by the same measurement as above. The angle of repose can be evaluated as the following manner. A funnel (a glass funnel having a funnel diameter of 50 mm, a stem internal diameter of 7 mm, and a stem length of 40 mm) is provided, the height from the lower end of the funnel to a base surface (an upper surface of a cylinder having a diameter of 1.5 cm) is fixed to 4.5 cm, an excess amount of a powdery sample is dropped onto the center of the cylinder surface (the base surface) through the funnel, and an incident angle of the resulting accumulated powder is measured.
The height from a lower end of a funnel to a base surface (an upper surface of a cylinder having a diameter of 1.5 cm) was fixed to 4.5 cm, an excess amount of a powdery sample was dropped onto the center of the cylinder surface (the base surface) through the funnel. An incident angle (an angle of repose) of the resulting accumulated powder was measured. This operation was repeated three times, and the average value of the angle of repose was calculated.
In Table 1, the degree of flow property is evaluated based on Japanese Pharmacopoeia, General Information (G2 Solid-state Properties, Powder Flow), which is described about the relationship between the angle of repose and the flow property.

[4] = Stability (stir-suspension) in mixed solvents; format: physicochemical; conditions: for proportion maintaining crystal structure: stirred; for stability of crystal form to the solvents commonly used in production of preparations: acetone/heptane, acetone/water, ethanol/water mixed solvents
Procedure: To (1) an acetone/heptane mixed solvent (1:1), (2) an acetone/water mixed solvent (1:1), or (3) an ethanol/water mixed solvent (1:1) was added the crystalline polymorphic form A, and the mixture was stirred. One day after, the crystalline polymorphic form A maintained a crystal structure thereof at a proportion of 98% in the mixed solvent (1), 99% in the mixed solvent (2), and 100% in the mixed solvent (3). Three days after, the crystalline polymorphic form A maintained a crystal structure thereof at a proportion of 95% in the mixed solvent (1), 98% in the mixed solvent (2), and 99% in the mixed solvent (3). Even seven days after, the crystalline polymorphic form A maintained a crystal structure thereof at a proportion of 95% in the mixed solvent (1), 98% in the mixed solvent (2), and 99% in the mixed solvent (3).

[5] = Thermal stability test (storage at 100° C., purity by HPLC); format: physicochemical; conditions: in air; for colour of crystal with the passage of time / colour of crystal on the seventh day after storage: 100° C.; for colour of crystal with the passage of time: after seventh day up to 28 days
Procedure: The crystalline polymorphic form A obtained in Example 1 and the crystalline polymorphic form B obtained in Comparative Example 1 were each stored at a temperature of 100° C. for 28 days (storage condition: in a thermostatic bath, in air). During the storage, the crystals were sampled every predetermined time, and the purity of 15β-hydroxy-osaterone acetate in each sample was measured by HPLC.

SMILES	degree of crystallization after one hour [1] [%]	Tmax (time to reach a maximum plasma concentration) [2] [h]	Angle of repose (°) Average [3] [°]	Degree of flow property [3]	Angle of repose (°) First time [3] [°]	Angle of repose (°) Second time [3] [°]	Angle of repose (°) Third time [3] [°]	stability of crystal form to the solvents commonly used in production of preparations [4]	colour of crystal with the passage of time [5]	colour of crystal on the seventh day after storage [5]	also measured
CC(=O)O[C@]1(C(C)=O)C[C@@H](O)[C@H]2[C@@H]3C=C(Cl)C4=CC(=O)OC[C@]4(C)[C@H]3CC[C@@]21C [Crystalline polymorphic form A, 17α-acetoxy-6-chloro-15β-hydroxy-2-oxapregna-4,6-diene-3,20-dione]	46.8	13.8 ± 8.33	35	Good	36	33	38	highly stable	maintained light brown	light brown	Cmax (maximum plasma concentration) [2]: 84.2 ± 29.06 ng/mL; proportion maintaining crystal structure ([4]; acetone/heptane mixed solvent (1:1), one day after): 98%; proportion maintaining crystal structure ([4]; acetone/heptane mixed solvent (1:1), seven days after): 95%; proportion maintaining crystal structure ([4]; acetone/heptane mixed solvent (1:1), three days after): 95%; proportion maintaining crystal structure ([4]; acetone/water mixed solvent (1:1), one day after): 99%; proportion maintaining crystal structure ([4]; acetone/water mixed solvent (1:1), seven days after): 98%; proportion maintaining crystal structure ([4]; acetone/water mixed solvent (1:1), three days after): 98%; proportion maintaining crystal structure ([4]; ethanol/water mixed solvent (1:1), one day after): 100%; proportion maintaining crystal structure ([4]; ethanol/water mixed solvent (1:1), seven days after): 99%; proportion maintaining crystal structure ([4]; ethanol/water mixed solvent (1:1), three days after): 99%; thermal stability (active ingredient content / purity of 15β-hydroxy-osaterone acetate by HPLC) ([5]; stored at 100° C. for 28 days, thermostatic bath, FIG. 5): only a few decreases in active ingredient content
CC(=O)O[C@]1(C(C)=O)C[C@@H](O)[C@H]2[C@@H]3C=C(Cl)C4=CC(=O)OC[C@]4(C)[C@H]3CC[C@@]21C [Crystalline polymorphic form B, 17α-acetoxy-6-chloro-15β-hydroxy-2-oxapregna-4,6-diene-3,20-dione, reference compound]	22.2	5.8 ± 1.60	46	Poor	51	39	48	unstable	turned brown	light brown	Cmax ([2]; female, dog, plasma, po, 0.3 mg/kg, read-out: Cmax (maximum plasma concentration)): 128 ± 19.2 ng/mL
